Laboratory results reported in ChEMBL document CHEMBL1156829 (Proc Natl Acad Sci U S A, 2008).

Columns and labels:
[1] = tested on: Plasmodium falciparum; test: NOVARTIS: Inhibition of Plasmodium falciparum W2 (drug-resistant) proliferation in erythrocyte-based infection assay; type: functional, organism-based; settings: Plasmodium falciparum, W2; read-out: EC50
[2] = tested on: Plasmodium falciparum; test: NOVARTIS: Inhibition of Plasmodium falciparum 3D7 (drug-susceptible) proliferation in erythrocyte-based infection assay; type: functional, organism-based; settings: Plasmodium falciparum, 3D7
[3] = NOVARTIS: Cytotoxicity against human hepatocellular carcinoma cell line (Huh7); type: toxicity, cell-based, Huh-7; settings: Huh7 cells (hepatocellular carcinoma cell line)

| SMILES | EC50 [1] [nM] | EC50 [2] [nM] | CC50 [3] [nM] |
| --- | --- | --- | --- |
| CCCCCCOc1ccc(C(C)=NNC2=NCCN2)cc1[N+](=O)[O-] | 791 | 228 | 7320 |
| COc1cc(C=NNc2nc3cc(Cl)ccc3[nH]2)cc(OC)c1OC | 1080 | 904 | > 10000 |
| COc1ccccc1NC(=O)C(=O)NCCc1ccc(OC)c(OC)c1 | > 10800 | > 10300 | > 100000 |
| NC(=O)CSc1nnc2ccc(-c3ccc4c(c3)OCO4)nn12 | > 1110 | > 1250 | > 10000 |
| CCN(CC)CCCC(C)N(Cc1cccc(OCc2ccccc2)c1)C(=O)NCc1ccccc1 (configuration not stated) | > 1100 | > 1250 | > 10000 |
| CCCOc1ccc(Cc2c(C)nc3ccc(Br)cc3c2O)cc1 | 1100 | 1030 | > 10000 |
| OC1(c2ccc(Br)cc2)CCN(C2CCN(CCc3ccccc3)CC2)CC1 | 527 | 136 | 4770 |
| CC(=O)Nc1cccc(N(C(=O)C2COc3ccccc3O2)C(C(=O)NC2CCCCC2)c2ccc(O)cc2)c1 (configuration not stated) | > 1100 | > 1250 | > 10000 |
| CCc1n(C)c2ccccc2[n+]1CC(=O)c1ccc(Br)cc1 | 1100 | 1660 | > 10000 |
| O=C(COc1ccc(Cl)cc1)NCc1ccc(CNc2noc3ccccc23)cc1 | 7290 | 3100 | 66200 |
| O=C(c1cc([N+](=O)[O-])cc([N+](=O)[O-])c1)N1CCN(c2cccc(C(F)(F)F)c2)CC1 | 1100 | 1180 | > 10000 |
| Cn1cc([N+](=O)[O-])c(C(=O)NN=Cc2c[nH]c3ccccc23)n1 | 1100 | 1940 | > 10000 |
| O=C(CCC1CCCN(C(=O)c2ccsc2)C1)N1CCN(c2ccccn2)CC1 (configuration not stated) | > 1100 | > 1250 | > 10000 |
| CN1CCCC(CNC(=O)c2cnn(-c3ncc4c(n3)-c3ccccc3SC4)c2C2CC2)C1 (configuration not stated) | 1100 | 976 | > 10000 |
| COC(=O)C1CCCCN1S(=O)(=O)c1ccc(C)cc1 (configuration not stated) | > 1120 | > 1250 | > 10000 |
| Cc1cccc(NC(=O)c2ccc3ccccc3n2)n1 | > 1090 | > 547 | > 10000 |
| CCCN(CC1CC1)C(=O)C1CCCN(c2cccc3c2C(=O)N(Cc2cc(OC)c(OC)c(OC)c2)C3=O)C1 (configuration not stated) | 1120 | > 1250 | > 10000 |

| SMILES | EC50 [1] [nM] | EC50 [2] [nM] | CC50 [3] [nM] |
| --- | --- | --- | --- |
| COc1ccccc1C(c1c(C)n[nH]c1O)c1c(C)n[nH]c1O | > 1100 | > 1250 | > 10000 |
| O=C1N(c2ccccc2)C[C@@H]2C[C@@H](c3ccc4nonc4c3)N3CCC[C@@]123 | 2500 | 2370 | > 22100 |
| COc1cc(OC)cc(C(=O)N2CCN(c3ccccn3)CC2)c1 | > 1130 | > 1250 | > 10000 |
| COc1ccc(N2CCN(C(=O)C3=C(C)C(=O)OC34CCCCC4)CC2)cc1 | > 1130 | 1620 | > 10000 |
| CC(=O)Nc1ccc(-c2nc(-c3ccc(Oc4ccc(-c5[nH]c(-c6ccc(NC(C)=O)cc6)nc5-c5ccccc5)cc4)cc3)c(-c3ccccc3)[nH]2)cc1 | 5590 | 6950 | 50100 |
| O=C(CCCc1nc(-c2ccccc2)no1)NCc1cccnc1 | 1130 | > 1770 | > 10000 |
| C=CCSc1nn2c(=O)c(C)nnc2s1 | 1080 | > 1620 | > 10000 |
| CCOC(=O)c1c(NC(=O)CCC(=O)OC)sc2c1CC(C)(C)SC2 | > 1110 | > 650 | > 10000 |
| CC(C)(C)NC(=O)C(c1cccs1)N(CCCN1CCOCC1)C(=O)c1ccc(-c2ccccc2)[nH]1 (configuration not stated) | 1110 | 1230 | > 10000 |
| CCOC(=O)N1CCC(NC(=O)CSCc2nc(-c3cccc(OC)c3)oc2C)CC1 | > 1080 | > 1250 | > 10000 |
| O=C(/C=C/c1ccc(Br)cc1)NC(=O)c1ccccc1O | 1090 | > 1250 | > 10000 |
| CCOc1ccc(-c2cn3c([n+]2Cc2ccccc2)SCCC3)cc1 | 1090 | 648 | > 10000 |
| Cc1cc(-c2cnc(N3CCCC3)nc2C2CCN(Cc3cccnc3)CC2)on1 | > 1090 | 190 | > 10000 |
| Cc1ccc(S(=O)(=O)N=C(NS(=O)(=O)c2ccc(C)cc2)c2ccccc2)cc1 | > 11200 | > 11200 | > 100000 |
| O=C(O)c1ccc(NC(=O)c2ccc(N3C(=O)C4C5C=CC(C5)C4C3=O)cc2)cc1 (configuration not stated) | > 11200 | > 11200 | > 100000 |
| N#CC1=C(N)Oc2c3c(c4ccccc4c2C1c1ccc(F)cc1)C(c1ccc(F)cc1)C(C#N)=C(N)O3 (configuration not stated) | 2440 | 4090 | 21600 |
| COCCCNC(=O)/C=C/c1ccc(C(C)C)cc1 | 1490 | 1050 | > 13500 |
